Like-named read-outs stand apart in the source and are kept apart here.
Experiments:
MOLT-4 = conditions: for Log10GI50: Leukemia, MOLT-4; for Log10LC50 / Log10TGI50: MOLT-4 (Leukemia); for Log10LC50: LC50: PG=−50; for Log10TGI50: TGI: PG=0; for drug concentration for primary growth inhibition (percentage growth +50): MOLT-4, from dose response curves FIGS. 7a-7i
Method: Growth Inhibition. […] The screening assay is performed on 96-well microtitre plates. Relatively high initial inoculation densities are used, in order to permit measurement of “time-zero” values and to enhance the screen's ability to detect and provide some differentiation between growth inhibition and cytotoxic response parameters. […] The inoculated microtitre plates are pre-incubated for 24 hours at 37° C. prior to drug additions. The five drug dilutions tested routinely range from 10^−4 to 10^−8 molar. Higher or lower concentration ranges may be selected on a non-routine basis if appropriate solubility and/or prior biological information or other screening data so dictate. Duplicate wells are prepared for all concentrations, (concentration is often denoted by placing brackets around a number); “time-zero” and “no drug” controls are also provided for each test. The minimum amount of compound required for a one-time evaluation in the routine screen can be calculated from the knowledge that each test requires a total of approximately 40 ml (0.04 liter) of cell culture medium containing the highest desired drug concentration. […] After a 48 hour incubation (37° C.) with the test compound, the cells are fixed in situ to the bottoms of the microtitre wells by addition of 50 μl of either 50% trichloroacetic acid (for adherent cell lines) or 80% trichloroacetic acid (for settled cell suspension lines), followed by incubation for 60 minutes at 4° C. The cellular protein in each well is assayed using a sulforhodamine B (SRB) stain procedure. Briefly, after discarding the supernatants, the microtitre plates are washed 5 times with deionized water and air-dried. […] Unbound SRB is removed by washing 5 times with 1% acetic acid. […] SRB is a bright pink anionic dye which, in dilute acetic acid, binds electrostatically to the basic amino acids of TCA-fixed cells. Cryopreserved master stocks of all the lines are maintained, and cultures used for screening are replaced from the master stock after no more than twenty passages in the screening laboratory. The cell line panel consists of 60 lines, organized into nine, disease-related subpanels including leukemia, non-small-cell lung cancer, colon, CNS, melanoma, ovarian, renal, prostate and breast cancers.
At this value the increase from time tzero, in the number or mass of cells in the test well is only 50% as much as the corresponding increase in the control well during this period of the experiment, see Table III. A drug effect of this intensity is interpreted as primary growth inhibition.
At this value the number or mass of cells in the well at the end of the experiment equals the number or mass of cells in the well at time tzero, see Table IV. A drug effect of this intensity is regarded as cytostasis.
At this value, the number or mass of cells in the test well at the end of the experiment is half that at time tzero, see Table V. This is interpreted as cytotoxicity.
Dose response curves, shown in the above mentioned Figures, are obtained by exposing various cancer cell lines to compounds having a known concentration ([log10M]), as discussed in detail above, and then plotting the percentage growth of each cell line for each concentration. […] Percentage growth is determined by dividing the number or mass of cells in the test well by the number or mass of cells in a control well. […] As discussed previously, the five drug dilutions routinely tested range from 10^−4 to […].

SR = assay: NCI 60 cell line panel screen (SRB); format: cell-based, human; conditions: for Log10LC50 / Log10TGI50: SR (Leukemia); for Log10LC50: LC50: PG=−50; for Log10TGI50: TGI: PG=0
NCI-H226 = assay: NCI 60 cell line panel screen (SRB); format: cell-based, human
HCC-2998 = assay: NCI 60 cell line panel screen (SRB); format: cell-based, human; conditions: for Log10GI50: Colon Cancer, HCC-2998; for Log10LC50 / Log10TGI50: HCC-2998 (Colon Cancer); for Log10LC50: LC50: PG=−50; for Log10TGI50: TGI: PG=0
SW-620 = assay: NCI 60 cell line panel screen (SRB); format: cell-based, human; conditions: for Log10GI50: Colon Cancer, SW-620; for Log10LC50 / Log10TGI50: SW-620 (Colon Cancer); for Log10LC50: LC50: PG=−50; for Log10TGI50: TGI: PG=0
SF-295 = assay: NCI 60 cell line panel screen (SRB); format: cell-based, human; conditions: for Log10GI50: CNS Cancer, SF-295; for Log10LC50 / Log10TGI50: SF-295 (CNS Cancer); for Log10LC50: LC50: PG=−50; for Log10TGI50: TGI: PG=0
LOX IMVI = assay: NCI 60 cell line panel screen (SRB); format: cell-based, human; conditions: for Log10LC50 / Log10TGI50: LOX IMVI (Melanoma); for Log10LC50: LC50: PG=−50; for Log10TGI50: TGI: PG=0; for Log10GI50: Melanoma, LOX IMVI
SK-MEL-5 = assay: NCI 60 cell line panel screen (SRB); format: cell-based, human
UACC-62 = assay: NCI 60 cell line panel screen (SRB); format: cell-based, human; conditions: for Log10GI50: Melanoma, UACC-62; for Log10LC50 / Log10TGI50: UACC-62 (Melanoma); for Log10LC50: LC50: PG=−50; for Log10TGI50: TGI: PG=0
OVCAR-4 = assay: NCI 60 cell line panel screen (SRB); format: cell-based, human; conditions: for Log10LC50 / Log10TGI50: OVCAR-4 (Ovarian Cancer); for Log10LC50: LC50: PG=−50; for Log10TGI50: TGI: PG=0; for Log10GI50: Ovarian Cancer, OVCAR-4
A498 = assay: NCI 60 cell line panel screen (SRB); format: cell-based, human; conditions: for Log10LC50: LC50: PG=−50; for Log10GI50: Renal Cancer, A498
SN12C = assay: NCI 60 cell line panel screen (SRB); format: cell-based, human; conditions: for Log10GI50: Renal Cancer, SN12C; for Log10LC50: LC50: PG=−50
UO-31 = assay: NCI 60 cell line panel screen (SRB); format: cell-based, human; conditions: for Log10GI50: Renal Cancer, UO-31; for Log10LC50 / Log10TGI50: UO-31 (Renal Cancer); for Log10LC50: LC50: PG=−50; for Log10TGI50: TGI: PG=0
DU-145 = assay: NCI 60 cell line panel screen (SRB); format: cell-based, human; conditions: for Log10LC50 / Log10TGI50: DU-145 (Prostate Cancer); for Log10LC50: LC50: PG=−50; for Log10TGI50: TGI: PG=0; for Log10GI50: Prostate Cancer, DU-145
MDA-N = assay: NCI 60 cell line panel screen (SRB); format: cell-based, human; conditions: for Log10GI50: Breast Cancer, MDA-N
[1] = test system: P. berghei NY malaria parasite; assay: Antimalarial efficacies in vivo in mice; conditions: for ED50: Plasmodium berghei, read-out: ED50
Excerpt: Neither overt toxicity nor behavioral modification was observed due to drug administration in any of these mouse experiments.

[2] = Solubility in water at pH 7.4; format: physicochemical

SMILES: CC1CCC2C(C)C(CC(CO)CC3OC4OC5(C)CCC6C(C)CCC(C3C)C46OO5)OC3OC4(C)CCC1C32OO4 (centres unmarked) [Compound 4, bis-trioxane primary alcohol]
- concentration for cytotoxicity (percentage growth −50) (MOLT-4): greater than 10^−4 M
- Log10GI50 (MOLT-4): −7.92
- Log10LC50 (MOLT-4): >−4.00 log10M
- Log10TGI50 (MOLT-4): >−4.00 log10M
- Log10GI50 (SR; Leukemia, SR): <−8.00
- Log10LC50 (SR): >−4.00 log10M
- Log10TGI50 (SR): −4.58 log10M
- Log10LC50 (NCI-H226; NCI-H226 (Non-Small Cell Lung Cancer), LC50: PG=−50): >−4.00 log10M
- Log10TGI50 (NCI-H226; NCI-H226 (Non-Small Cell Lung Cancer), TGI: PG=0): −4.40 log10M
- Log10GI50 (NCI-H226; Non-Small Cell Lung Cancer, NCI-H226): −4.82
- Log10GI50 (HCC-2998): −7.45
- Log10LC50 (HCC-2998): −4.59 log10M
- Log10TGI50 (HCC-2998): −5.39 log10M
- Log10GI50 (SW-620): <−8.00
- Log10LC50 (SW-620): −4.44 log10M
- Log10TGI50 (SW-620): −4.89 log10M
- Log10GI50 (SF-295): −5.59
- Log10LC50 (SF-295): −4.39 log10M
- Log10TGI50 (SF-295): −4.80 log10M
- Log10LC50 (LOX IMVI): >−4.00 log10M
- Log10TGI50 (LOX IMVI): −4.45 log10M
- Log10GI50 (LOX IMVI): −7.26
- Log10GI50 (SK-MEL-5; Melanoma, SK-MEL-5): −7.90
- Log10LC50 (SK-MEL-5; SK-MEL-5 (Melanoma), LC50: PG=−50): −4.53 log10M
- Log10TGI50 (SK-MEL-5; SK-MEL-5 (Melanoma), TGI: PG=0): −7.18 log10M
- Log10GI50 (UACC-62): −6.86
- Log10LC50 (UACC-62): −4.29 log10M
- Log10TGI50 (UACC-62): −4.74 log10M
- Log10LC50 (OVCAR-4): −4.16 log10M
- Log10TGI50 (OVCAR-4): −4.62 log10M
- Log10GI50 (OVCAR-4): −5.44
- Log10LC50 (A498; A498 (Renal Cancer)): −4.50 log10M
- Log10TGI50 (A498; A498 (Renal Cancer), TGI: PG=0): −5.00 log10M
- Log10GI50 (A498): −6.69
- Log10GI50 (SN12C): −7.46
- Log10LC50 (SN12C; SN12C (Renal Cancer)): −4.35 log10M
- Log10TGI50 (SN12C; SN12C (Renal Cancer), TGI: PG=0): −4.84 log10M
- Log10GI50 (UO-31): −7.46
- Log10LC50 (UO-31): −5.14 log10M
- Log10TGI50 (UO-31): −5.77 log10M
- Log10LC50 (DU-145): −4.36 log10M
- Log10TGI50 (DU-145): −4.72 log10M
- Log10GI50 (DU-145): −6.24
- Log10GI50 (MDA-N): −7.54
- Log10LC50 (MDA-N; MDA-N (Breast Cancer), LC50: PG=−50): −4.45 log10M
- Log10TGI50 (MDA-N; MDA-N (Breast Cancer), TGI: PG=0): −4.90 log10M

SMILES: C[C@@H]1CC[C@H]2[C@@H](C)C(CC(O)(COC(=O)CCC(=O)O)CC3OC4O[C@]5(C)CC[C@H]6[C@H](C)CC[C@@H]([C@H]3C)C46OO5)OC3O[C@]4(C)CCC1C32OO4 (some centres unmarked) [Compound 9, tertiary alcohol primary succinate ester]
- ED50 ([1]; route IV): 2.4 mg/kg
- ED50 ([1]; route PO): 4.8 mg/kg
- ED90 ([1]; route IV): 11.0 mg/kg × 4
- % Parasite Supression at 10 mg/kg ([1]; route IV): 83.4%
- ED90 ([1]; route PO): 34.0 mg/kg × 4
- % Parasite Supression at 10 mg/kg ([1]; route PO): 55.4%
- Log10GI50 (MOLT-4): −5.15
- Log10LC50 (MOLT-4): >−4.30 log10M
- Log10TGI50 (MOLT-4): >−4.30 log10M
- drug concentration for primary growth inhibition (percentage growth +50) (MOLT-4): < 10^−5 molar
- concentration for cytotoxicity (percentage growth −50) (MOLT-4; human, 48 h): greater than 10^−4 M
- Log10GI50 (SF-295): <−8.30
- Log10LC50 (SF-295): −4.60 log10M
- Log10TGI50 (SF-295): <−8.30 log10M
- Log10GI50 (UO-31): −5.05
- Log10LC50 (UO-31): >−4.30 log10M
- Log10TGI50 (UO-31): >−4.30 log10M
- water solubility relative to artelinic acid [2]: ~30 times

SMILES: CC(=O)O[C@H]1C(=O)[C@@]2(C)[C@H]([C@H](OC(=O)c3ccccc3)[C@]3(O)C[C@H](OC(=O)[C@H](O)[C@@H](NC(=O)c4ccccc4)c4ccccc4)C(C)=C1C3(C)C)[C@]1(OC(C)=O)CO[C@@H]1C[C@@H]2O [Paclitaxel, paclitaxel, reference compound]
- Log10GI50 (MOLT-4): −11.07
- Log10LC50 (MOLT-4): >−4.00 log10M
- Log10TGI50 (MOLT-4): >−4.00 log10M
- drug concentration for primary growth inhibition (percentage growth +50) (MOLT-4): 10^−11 molar
- concentration for cytotoxicity (percentage growth −50) (MOLT-4; human, 48 h): greater than 10^−4 M
- Log10LC50 (SR): >−4.00 log10M
- Log10TGI50 (SR): >−4.00 log10M
- Log10GI50 (HCC-2998): −12.34
- Log10LC50 (HCC-2998): −4.26 log10M
- Log10TGI50 (HCC-2998): −4.77 log10M
- Log10GI50 (SW-620): −11.60
- Log10LC50 (SW-620): >−4.00 log10M
- Log10TGI50 (SW-620): >−4.00 log10M
- Log10LC50 (LOX IMVI): >−4.15 log10M
- Log10TGI50 (LOX IMVI): −4.65 log10M
- Log10GI50 (LOX IMVI): −11.80
- Log10GI50 (UACC-62): −10.46
- Log10LC50 (UACC-62): −4.19 log10M
- Log10TGI50 (UACC-62): −4.71 log10M
- Log10LC50 (OVCAR-4): >−4.00 log10M
- Log10TGI50 (OVCAR-4): −4.19 log10M
- Log10GI50 (OVCAR-4): −5.00
- Log10LC50 (A498; A498 (Renal Cancer)): −4.13 log10M
- Log10GI50 (A498): −7.14
- Log10GI50 (SN12C): −9.53
- Log10LC50 (SN12C; SN12C (Renal Cancer)): >−4.00 log10M
- Log10GI50 (UO-31): −6.09
- Log10LC50 (DU-145): >−4.00 log10M
- Log10TGI50 (DU-145): >−4.00 log10M
- Log10GI50 (DU-145): −9.38
- Log10GI50 (MDA-N): <−13.00
